# Data from patent publication US20140343095A1, “Methods of Diagnosing and Treating Multiple Sclerosis” (The Brigham and Women's Hospital, Inc., priority 2009, published 2014).
# Legend:
# PARP-1 [1] = biological target: PARP-1 (Homo sapiens, UniProt P09874); experiment: PARP-1 enzymatic activity in human PBMCs (PARP HT Universal Colorimetric Kit); assay type: cell-based; set-up: endogenous in cells; host or cells: human PBMCs / monocytes / dendritic cells / T and B cells from healthy controls and MS patients; conditions: healthy controls, 1 ug/ml 15-HC
# Sequence of PARP-1 (Homo sapiens, UniProt P09874) (P09874 whole entry): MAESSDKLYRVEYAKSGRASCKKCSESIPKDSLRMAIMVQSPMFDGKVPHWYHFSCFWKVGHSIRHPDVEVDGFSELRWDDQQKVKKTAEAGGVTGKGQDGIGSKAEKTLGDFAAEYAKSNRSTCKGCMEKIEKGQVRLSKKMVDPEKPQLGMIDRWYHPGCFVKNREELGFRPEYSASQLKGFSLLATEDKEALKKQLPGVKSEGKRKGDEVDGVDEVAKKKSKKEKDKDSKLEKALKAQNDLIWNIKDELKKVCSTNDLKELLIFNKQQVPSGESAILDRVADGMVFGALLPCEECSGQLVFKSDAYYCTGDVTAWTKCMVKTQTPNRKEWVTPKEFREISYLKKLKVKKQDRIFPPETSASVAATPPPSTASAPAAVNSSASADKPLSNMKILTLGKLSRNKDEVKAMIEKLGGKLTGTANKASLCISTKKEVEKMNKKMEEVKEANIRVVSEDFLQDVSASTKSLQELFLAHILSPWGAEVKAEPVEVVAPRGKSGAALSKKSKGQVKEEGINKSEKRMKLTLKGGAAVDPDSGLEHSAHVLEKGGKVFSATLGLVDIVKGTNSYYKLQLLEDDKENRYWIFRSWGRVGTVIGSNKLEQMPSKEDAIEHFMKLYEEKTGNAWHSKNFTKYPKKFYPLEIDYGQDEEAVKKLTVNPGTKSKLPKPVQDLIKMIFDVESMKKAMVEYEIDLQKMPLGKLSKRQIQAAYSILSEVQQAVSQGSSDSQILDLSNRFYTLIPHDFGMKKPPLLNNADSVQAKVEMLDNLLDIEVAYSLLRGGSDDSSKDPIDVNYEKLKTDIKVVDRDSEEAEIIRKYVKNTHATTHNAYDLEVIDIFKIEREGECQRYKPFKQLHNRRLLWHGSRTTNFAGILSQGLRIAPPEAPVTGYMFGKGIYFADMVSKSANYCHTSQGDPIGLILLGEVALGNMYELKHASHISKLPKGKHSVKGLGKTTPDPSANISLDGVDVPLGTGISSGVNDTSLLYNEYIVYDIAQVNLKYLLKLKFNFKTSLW
# Experimental: PARP-1 enzymatic activity (10A) and TNFalpha and CCL2 (10B) of PBMCs incubated with 15-HC alone, or in combination with AIQ, blocking antibodies to TLR2 or IC control.
# To investigate whether the TLR2/PARP-1 axis is functional in human we activated PBMCs from healthy controls with 15-HC, in the presence or not of PARP-1 or TLR2 inhibitors.
# Erk / PARP-1 interaction = experiment: Co-immunoprecipitation of ERK and PARP-1; assay type: cell-based, mouse; conditions: microglia and macrophages activated with 15-HC
# Experimental: 5A, a bar graph showing the time course of microglial PARP-1 activation by 15-oxysterols or 7-KC. PARP-1 activity is shown as Mean±SEM. 5B, a set of eight bar graphs showing signaling pathways activated by 15-HC. Microglial cells were stimulated with 15-HC and lysed at 1, 5, and 15 minutes. Signal transduction arrays were made with the lysates and probed with phospho-specific antibodies. 15a-HC increases the phosphorylation of TAK1 (top right), IRAK (top left), Akt (second row, left), p38 MAPK (second row, right), Pyk2 (third row, left), PKC (third row, right), PI3K (bottom row, left), and Erk1/2 (bottom row, right). (Mean±SEM) 5C, a bar graph showing activation of microglial PARP-1 by 15-HC in the presence of kinase inhibitors (Mean±SEM). 5D, an immunoblot and a bar graph showing the results of co-immunoprecipitaiton of ERK and PARP-1. Microglial cells were treated with 15-HC, lysed, immunoprecipitated with antibodies to phosphorylated Erk and then the pulled down material was probed with antibodies to PARP-1.
# Thus, co-immunoprecipitation studies were carried out to better characterize the mechanisms by which 15-HC activates PARP-1. Microglia and macrophages were activated with 15-HC, ERK-specific antibodies were used for immunoprecipitation, and the pulled down material was probed with antibodies to PARP-1.
# PARP-1 [2] = experiment: FACS PARP-1 activity in innate and adaptive immune cells treated with HSP60 or 15-HC; assay type: cell-based, human; conditions: HSP60 1, 5, 10 ng/ml, 15-HC 1, 5, 10 ug/ml
# From the text: FIGS. 17A-C are bar graphs showing that 15-HC, but not HSP60, activates PARP-1 in cells of the innate immune system. Mean PARP-1 activity as determined by FACS in classical monocytes (17A), inflammatory monocytes (17B) and dendritic cells (17C) of healthy controls (HC) treated with activated with HSP60, 15-HC or left untreated. The data are shown as mean fluorescence intensity (MFI)±SD of 5 samples/group.
# FIGS. 18A-C are bar graphs showing that both 15-HC and HSP60 activate PARP-1 in cells of the adaptive immune system. Mean PARP-1 activity as determined by FACS in CD4+ T cells (18A), CD8+ T cells (18B) and B cells (18C) of healthy controls (HC) treated with activated with HSP60, 15-HC or left untreated. The data are shown as mean fluorescence intensity (MFI)±SD of 5 samples/group.
# A new FACS-based method was developed to detect PARP-1 activation based on the intracellular detection of the PARP-1 product PAR with specific antibodies. Briefly, the cells were incubated with antibodies to CD16/32 to block unspecific antibody binding, and then stained for surface markers. […] The samples were then analyzed by FACS.
# To investigate whether the increased activity of the TLR2/PARP-1 axis in SPMS patients resulted from increased levels of TLR2 ligands, the levels of 15-HC and HSP60 were measured in serum samples from healthy controls, RRMS and SPMS patients. […]
# [3] = test system: microglia, macrophages or astrocytes; experiment: TNF-α, CCL-2 and NO secretion by microglia, macrophages or astrocytes; assay type: cell-based, mouse; conditions: microglia, macrophages or astrocytes incubated with 15-HC
# Experimental: FIGS. 4A-D show the results of activation of microglia, macrophages and astrocytes by 15-HC. 4A, a bar graph showing PARP-1 activity in a cell-free system where recombinant PARP-1 was incubated with DNA which as been pretreated with 15-HC or 7-KC. Non-pretreated DNA was used as a negative control and ssb-DNA as a positive control. Data is shown as Mean±SEM. 4B, a pair of bar graphs showing PARP-1 activity measured in microglia, macrophages or astrocytes incubated with 15-HC or 7-KC. The data is shown as the fold of change between vehicle and lipid-treated cells (Mean±SEM). 4C, a pair of bar graphs showing percent inhibition of PARP-1 activity in microglia, macrophages or astrocytes activated with 15-HC or 7-KC […] in the presence of 5-AIQ. 4D, a table showing levels of TNF-α, CCL-2 and NO secretion by 15-HC or 7-KC treated microglia, macrophages or astrocytes (Mean±SEM).
# The effect of 15-HC on the activity of cellular PARP-1 was then investigated. […] Thus, 15-HC activates microglia, macrophages and astrocytes through a PARP-1-dependent mechanism.
# PARP-1 [4] = biological target: PARP-1 (Mus musculus, UniProt P11103); experiment: Cellular PARP-1 activity in microglia, macrophages or astrocytes; assay type: cell-based; set-up: host or cells: C8B4 microglia, C8-D1A astrocytes, Raw 264.7 macrophages
# Sequence of PARP-1 (Mus musculus, UniProt P11103) (P11103 whole entry): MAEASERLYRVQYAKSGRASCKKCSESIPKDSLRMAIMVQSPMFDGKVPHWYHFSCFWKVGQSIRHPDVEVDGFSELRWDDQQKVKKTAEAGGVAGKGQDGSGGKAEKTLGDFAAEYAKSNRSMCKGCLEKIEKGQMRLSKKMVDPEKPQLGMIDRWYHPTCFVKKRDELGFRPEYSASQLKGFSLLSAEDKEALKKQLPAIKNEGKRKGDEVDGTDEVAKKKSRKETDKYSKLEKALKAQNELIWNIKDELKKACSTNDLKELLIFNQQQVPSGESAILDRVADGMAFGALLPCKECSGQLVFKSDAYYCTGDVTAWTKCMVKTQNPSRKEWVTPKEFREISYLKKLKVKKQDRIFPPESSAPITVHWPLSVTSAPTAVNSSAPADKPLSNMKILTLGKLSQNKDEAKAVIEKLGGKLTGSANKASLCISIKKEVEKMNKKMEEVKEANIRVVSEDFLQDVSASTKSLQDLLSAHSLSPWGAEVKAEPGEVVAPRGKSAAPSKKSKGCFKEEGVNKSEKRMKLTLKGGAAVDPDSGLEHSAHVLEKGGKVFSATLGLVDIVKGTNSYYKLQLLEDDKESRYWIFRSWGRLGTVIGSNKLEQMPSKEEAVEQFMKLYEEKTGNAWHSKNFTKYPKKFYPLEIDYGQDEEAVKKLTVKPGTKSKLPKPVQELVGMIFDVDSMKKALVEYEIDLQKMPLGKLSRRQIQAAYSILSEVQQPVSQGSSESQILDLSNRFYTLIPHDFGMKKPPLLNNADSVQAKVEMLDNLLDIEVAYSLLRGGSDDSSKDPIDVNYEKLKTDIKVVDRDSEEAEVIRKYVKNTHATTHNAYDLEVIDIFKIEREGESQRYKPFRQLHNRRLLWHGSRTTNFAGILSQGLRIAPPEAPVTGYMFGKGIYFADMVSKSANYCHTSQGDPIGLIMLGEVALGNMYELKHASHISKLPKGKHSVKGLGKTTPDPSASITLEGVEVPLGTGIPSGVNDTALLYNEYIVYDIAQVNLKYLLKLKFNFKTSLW
# Experimental: 5A, a bar graph showing the time course of microglial PARP-1 activation by 15-oxysterols or 7-KC. PARP-1 activity is shown as Mean±SEM. […] (Mean±SEM) 5C, a bar graph showing activation of microglial PARP-1 by 15-HC in the presence of kinase inhibitors (Mean±SEM).
# 6A, a set of three bar graphs showing PARP-1 activity in microglia, macrophages or astrocytes activated with 15-HC in the presence of blocking antibodies to TLR2 or TLR4, or isotype controls (Mean±SEM).
# PARP-1 activity was measured using PARP HT Universal Colorimetric Kit (Trevigen, MD, USA), following manufacturer instructions.
# Cells were cultured with DMEM supplemented with 10% fetal bovine serum, 2 mM L-glutamine, 25 mM HEPES, and 1 mM sodium pyruvate. Cells in logarithmic growth were treated with 1 μg/ml of 15-HC for 1, 5, 15, and 30 minutes in serum-free medium. Blocking antibodies (Ebioscience, San Diego, Calif., USA) were added in some experiments at a final concentration of 10 ug/ml.
substance,measurement,setting,value
15-hydroxycholestene [15-HC],PARP-1 enzymatic activity in human PBMCs,PARP-1 [1],results in the activation
same,interaction of Erk with PARP-1,Erk / PARP-1 interaction,significant interaction
same,PARP-1 activation in cells of the adaptive immune system (FIG. 18),"PARP-1 [2]; CD4+ T cells, CD8+ T cells, B cells of healthy controls",could activate
same,PARP-1 activation in cells of the innate immune system (FIG. 17),"PARP-1 [2]; classical monocytes, inflammatory monocytes, dendritic cells of healthy controls",only 15-HC could activate
same,"secretion of NO, CCL-2 and TNF-α",[3],resulted in the secretion
same,incubation time resulting in activation of PARP-1,PARP-1 [4]; macrophages or microglia,5 min
same,activation of cellular PARP-1,"PARP-1 [4]; macrophages, microglia or astrocytes",dose-dependent activation
